Measured values published in patent publication US11202792B2, “CD99 inhibitors and their uses” (GEORGETOWN UNIVERSITY, priority 2016, dated 2021).

What was measured:
[1] = target: T1, interaction of CD99 with cyclophilin A and PKA-RIIα (Homo sapiens, UniProt P14209); assay: Co-immunoprecipitation of CD99 with cyclophilin A and PKA-RIIα; format: cell-based; details: 3 μmol/L, 6 h; RDES or STA-ET-7.2 cells
T1 construct: Endogenous CD99 was immunoprecipitated from RDES or STA-ET-7.2 ES cells; endogenous in cells; host or cells: RDES or STA-ET-7.2
T1 sequence (P14209 23-185): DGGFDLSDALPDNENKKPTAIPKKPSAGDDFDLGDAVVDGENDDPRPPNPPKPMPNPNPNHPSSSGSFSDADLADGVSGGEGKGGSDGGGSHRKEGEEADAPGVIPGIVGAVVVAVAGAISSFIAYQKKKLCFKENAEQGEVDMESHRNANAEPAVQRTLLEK
Method: In FIG. 7A, STA-ET-7.2 ES cells were incubated with either drug at 5 μmol/L concentration or DMSO for 1 h. The cells were treated with cross-linking agent BS^3 as described in the Examples. The lysates were resolved in 12% SDS-PAGE followed by immunoblotting with anti-actin and anti-CD99 clone 013 antibodies. M and D represent monomeric and dimeric forms of CD99, respectively. Values given below the lanes on the immunoblot represent the relative density of the bands, and were determined using ImageJ 1.48v software. In FIG. 7B, RDES or STA-ET-7.2 ES cells were treated with 3 μmol/L of either drug for 6 h. Endogenous CD99 was immunoprecipitated from total cell lysates using either anti-CD99 clone 12E7 antibody or anti-CD99 clone 013 antibody. Immunoblot (IB) analysis was performed for cyclophilin A, CD99 and PKA-RIIα using both cell lysates (TCL) and immunoprecipitated (IP) samples. Values given below the lanes on each immunoblot represent the relative density of the bands, and were determined using ImageJ 1.48v software. In FIG. 7C, SAOS-2 and U-2 OS cells were transiently transfected with an empty mammalian expression vector (EV) or an expression construct containing a cDNA encoding full length human CD99. The growth rate of cells was monitored by electrical impedance in real time. […]

[2] = test system: CD99-transfected SAOS-2 and U-2 OS cells; assay: Real-time proliferation (xCELLigence) of OS cells with forced CD99 expression; format: cell-based, human; details: dose-dependent
Method: U-2 OS and SAOS-2 cells were transfected with pcDNA3.1 expression vector carrying the human full-length CD99 transcript variant 1 cDNA using the X-tremeGene 9 DNA transfection reagent (Roche Diagnostics) according to the manufacturer's recommendations. The expression of CD99 was assessed after 48 h by immunoblotting.
OS cells express low levels of CD99 and the forced ectopic expression of CD99 reduces their growth. To test whether cladribine can rescue the reduced proliferation phenotype induced by overexpression of CD99, U-2 OS and SAOS-2 cells were transiently transfected with a mammalian expression vector containing cDNA encoding full length human CD99. As expected, CD99-forced expression suppressed cell proliferation compared with empty-vector transfected cells, which was rescued by the addition of cladribine in a dose-dependent manner (FIGS. 7C-D and FIG. 9).

RDES ES cells = assay: Cell viability IC50, RDES; format: cell-based; details: Homo sapiens, RD-ES
SK-N-MC ES cells = assay: Cell viability IC50, SK-N-MC; format: cell-based; details: Homo sapiens
Method: (§1) The plate was installed into the RTCA system, and the electrical impedance (represented as cell index) was measured every 10 min.
(§2) To investigate the relationship between the level of CD99 expression and drug sensitivity, the endogenous expression of CD99 was determined in a panel of 9 ES and 13 non-ES cell lines. The recombinant purified CD99-ECD protein was used to generate standard curves for immunoquantification of CD99 expression by immunoblotting (FIGS. 6B and 6C).

IOR/MOS OS cells = assay: Cell viability IC50, IOR/MOS; format: cell-based; details: Homo sapiens
Method: as §1, §2

[3] = test system: TC-71 and RD-ES cell lines; assay: Dose-dependent cytotoxicity assay in ES cell lines; format: cell-based, human; details: Homo sapiens; dose-response at 1, 3, 10 and 30 μmol/L in TC-71 and RD-ES
Method: as §1
The primary screen was based on a direct binding assay using surface plasmon resonance (SPR) technology with purified extracellular domain of CD99 (CD99-ECD) protein that was immobilized on a neutravidin-coated sensor chip. […] A negative control protein was used in order to eliminate non-specific binders. […] Dose-response studies were performed with 2 compounds at 1, 3, 10 and 30 μmol/L concentration in ES cell lines.

U-2 OS cells = assay: Cell cycle analysis by flow cytometry, OS cells; format: cell-based, human; details: 48 h, U-2 OS compared with ES cells
Method: For the evaluation of cell cycle, cell cultures were incubated with 10 μmol/L bromodeoxyuridine (BrdU) (Sigma-Aldrich) for 1 h in a CO2 atmosphere at 37° C. Harvested cells were fixed in ice-cold 70% ethanol for 30 min. After DNA denaturation with 2 N HCl for 30 min at room temperature, cells were washed with 0.1 M Na2B4O7, pH 8.5 and processed for indirect immunofluorescence staining, using α-BrdU (BD Biosciences (San Jose, Calif.)) diluted 1:4 as a primary MAb and α-mouse FITC (1:100—Thermo Scientific (Waltham, Mass.)) as a secondary antibody. After treatment with 0.5 mg/ml RNase and staining with 20 μg/ml propidium iodide, cells were and analyzed by flow cytometry (FACSCalibur; Becton Dickinson (Franklin Lakes, N.J.)) for cell cycle evaluation and for assessing cell death by DNA content analysis.

TC-CD99-shRNA #1 cells = assay: Soft agar colony formation assay, CD99 knockdown cells; format: cell-based, human

SMILES | amount of coprecipitated cyclophilin A and PKA-RIIα [1] | rescue of reduced cell proliferation induced by CD99 expression [2] | IC50 (RDES ES cells) | IC50 (SK-N-MC ES cells) | IC50 (IOR/MOS OS cells) | IC50 [3] | cell cycle effect (U-2 OS cells) | colony formation in CD99 knockdown cells (TC-CD99-shRNA #1 cells)
Nc1nc(Cl)nc2c1ncn2[C@H]1C[C@H](O)[C@@H](CO)O1 [cladribine] | decreased significantly | rescued | 660 nM | 680 nM | > 30000 nM | < 1000 nM | more pronounced | 
Nc1nc(Cl)nc2c1ncn2[C@@H]1O[C@H](CO)[C@@H](O)[C@@H]1F [clofarabine] | decreased significantly |  | 490 nM | 170 nM | > 10000 nM | < 1000 nM |  | did not result in further decrease
